Assay results reported in patent publication US9518046B2 (Calitor Sciences, LLC, priority 2015, dated 2016).

Experiment: Pharmacokinetics after intravenous and oral administration in rats
Type: in vivo
Details: Rats; iv dosing; dose 1 mg/kg (0.5 for Ex. 1, 10, 11, 35; 0.48 for Ex. 24)
Protocol: The LC/MS/MS system used in the analysis consists of an Agilent 1200 Series vacuum degasser, binary pump, well-plate autosampler, thermostatted column compartment, the Agilent G6430 Triple Quadrupole Mass Spectrometer with an electrosprayionization (ESI) source. Quantitative analysis was carried out using MRM mode. The parameters for MRM transitions are in the Table A.
An Agilent XDB-C18, 2.1×30 mm, 3.5 M column was used for the analysis. 5 L of the samples were injected. Analysis condition: The mobile phase was 0.1% formic acid in water (A) and 0.1% formic acid in methanol (B). The flow rate was 0.4 mL/min. And the gradient of Mobile phase was in the Table B.
Alternatively, an Agilent 6330 series LC/MS/MS spectrometer equipped with G1312A binary pumps, a G1367A autosampler and a G1314C UV detector were used in the analysis. An ESI source was used on the LC/MS/MS spectrometer. The analysis was done in positive ion mode as appropriate and the MRM transition for each analyte was optimized using standard solution. A Capcell MP-C18 100×4.6 mm I.D., […] column (Phenomenex, Torrance, Calif., USA) was used during the analysis. The mobile phase was 5 mM ammonia acetate, 0.1% MeOH in water (A): 5 mM ammonia acetate, 0.1% MeOH in acetonitrile (B) (70:30, v/v). The flow rate was 0.6 mL/min. Column was maintained at ambient temperature. 20 μL of the samples were injected.
The compounds disclosed herein are assessed in pharmacokinetic studies in mice, rats, dogs or monkeys. The compounds are administered as a water solution, 2% HPMC+1% TWEEN®80 in water solution, 5% DMSO+5% solutol in saline, 4% MC suspension or capsule. For the intravenous administration, the animals are generally given at 1 or 2 mg/kg dose. For the oral (p.o.) dosing, mice and rats are generally given 5 or 10 mg/kg dose, and dogs and monkeys are generally given 10 mg/kg dose. The blood samples (0.3 mL) are drawn at 0.25, 0.5, 1.0, 2.0, 3.0, 4.0, 6.0, 8.0, 12 and 24 h time points or 0.083, 0.25, 0.5, 1.0, 2.0, 4.0, 6.0, 8.0 and 24 h time points and centrifuged at 3,000 or 4000 rpm for 2 to 10 min. The plasma solutions are collected, stored at −20° C. or −70° C. until analyzed by LC/MS/MS as described above.

SMILES	CL/F [mL/min/kg]
CC[C@H](Nc1ncnc(N)c1-c1noc(C)n1)c1nc2ccccc2c(=O)n1-c1ccccc1F	118
CC[C@H](Nc1ncnc(N)c1-c1nnc(C)o1)c1nc2cccc(F)c2c(=O)n1C1CC1 [Ex. 25, (S)-2-(1-((6-amino-S-(5-methyl-1,3,4-oxadiazol-2-yl)pyrimidin-4-yl)amino)-propyl)-3-cyclopropyl-5-fluoroquinazolin-4(3H)-one]	75.7
CC[C@H](Nc1ncnc(N)c1-c1noc(C)n1)c1nc2cccc(F)c2c(=O)n1C1CC1 [Ex. 16, (S)-2-(1-((6-amino-5-(5-methyl-1,2,4-oxadiazol-3-yl)pyrimidin-4-yl)amino)-propyl)-3-cyclopropyl-5-fluoroquinazolin-4(3H)-one]	68.7
CC[C@H](Nc1ncnc(N)c1-c1ncnn1C)c1nc2cccc(Cl)c2c(=O)n1-c1ccccc1 [Ex. 10, 2-((1S)-1-((6-amino-5-(1-methyl-H-1,2,4-triazol-5-yl)pyrimidin-4-yl)amino)propyl)-5-chloro-3-phenylquinazolin-4(3H)-one]	3.5
CC[C@H](Nc1ncnc(N)c1C1=N[C@@H](C)CO1)c1nc2cccc(Cl)c2c(=O)n1C1CC1 [Ex. 5, 2-((S)-1-((6-amino-5-((S)-4-methyl-4,5-dihydrooxazol-2-yl)pyrimidin-4-yl)amino)propyl)-5-chloro-3-cyclopropylquinazolin-4(3H)-one]	59.5
CC[C@H](Nc1ncnc(N)c1-c1ncn(C)n1)c1nc2cccc(C)c2c(=O)n1C1CC1 [Ex. 18, (S)-2-(1-((6-amino-5-(1-methyl-1H-1,2,4-triazol-3-yl)pyrimidin-4-yl)amino)propyl)-3-cyclopropyl-5-methylquinazolin-4(3H)-one]	54.2
CC[C@H](Nc1ncnc(N)c1-c1ncc(C)o1)c1nc2cccc(C)c2c(=O)n1-c1ccccc1C (single isomer, unassigned) [Ex. 28]	61.2
CC[C@H](Nc1ncnc(N)c1-c1nnc(C)o1)c1nc2cccc(Cl)c2c(=O)n1C1CC1 [Ex. 2, (S)-2-(1-((6-amino-5-(5-methyl-1,3,4-oxadiazol-2-yl)pyrimidin-4-yl)amino)-propyl)-5-chloro-3-cyclopropylquinazolin-4(3H)-one]	41.2
CC[C@H](Nc1ncnc(N)c1-c1nc(C)co1)c1nc2cccc(C)c2c(=O)n1-c1ccccc1C (single isomer, unassigned) [Ex. 29]	130
CC[C@H](Nc1ncnc(N)c1-c1noc(C)n1)c1nc2cccc(C)c2c(=O)n1-c1ccccc1C (single isomer, unassigned) [Ex. 15]	74.2
CC[C@H](Nc1ncnc(N)c1-c1nc(C)no1)c1nc2cccc(C)c2c(=O)n1C1CC1 [Ex. 21, (S)-2-(1-((6-amino-5-(3-methyl-1,2,4-oxadiazol-5-yl)pyrimidin-4-yl)amino)-propyl)-3-cyclopropyl-5-methylquinazolin-4(3H)-one]	55.8
CC[C@H](Nc1ncnc(N)c1-c1nc(C)no1)c1nc2cccc(C)c2c(=O)n1-c1ccccc1C (single isomer, unassigned) [Ex. 27]	61.7
CC[C@H](Nc1ncnc(N)c1-c1noc(C)n1)c1nc2cccc(Cl)c2c(=O)n1C1CC1 [Ex. 12, (S)-2-(1-((6-amino-5-(5-methyl-1,2,4-oxadiazol-3-yl)pyrimidin-4-yl)amino)-propyl)-5-chloro-3-cyclopropylquinazolin-4(3H)-one]	31.8
CC[C@H](Nc1ncnc(N)c1-c1ncn(C)n1)c1nc2cccc(C)c2c(=O)n1-c1ccccc1C (single isomer, unassigned) [Ex. 30]	70.5
CC[C@H](Nc1ncnc(N)c1-c1nnc(C)o1)c1nc2ccccc2c(=O)n1-c1ccccc1F (single isomer, unassigned) [Ex. 24]	70.5
CC[C@H](Nc1ncnc(N)c1-c1noc(C)n1)c1nc2cccc(Cl)c2c(=O)n1-c1ccccc1 [Ex. 13, (S)-2-(1-((6-amino-5-(5-methyl-1,2,4-oxadiazol-3-yl)pyrimidin-4-yl)amino)-propyl)-5-chloro-3-phenylquinazolin-4(3H)-one]	72.5
CC[C@H](Nc1ncnc(N)c1-c1nnc(C)o1)c1nc2cccc(Cl)c2c(=O)n1-c1ccccc1 [Ex. 1, (S)-2-(1-((6-amino-5-(5-methyl-1,3,4-oxadiazol-2-yl)pyrimidin-4-yl)amino)-propyl)-5-chloro-3-phenylquinazolin-4(3H)-one]	47.3

Further lines, results first:

CL/F [mL/min/kg]	SMILES
51.8	CC[C@H](Nc1ncnc(N)c1-c1nc(C)no1)c1nc2cccc(F)c2c(=O)n1-c1ccccc1 [Ex. 39, (S)-2-(1-((6-amino-5-(3-methyl-1,2,4-oxadiazol-5-yl)pyrimidin-4-yl)amino)-propyl)-5-fluoro-3-phenylquinazolin-4(3H)-one]
65.5	Cc1nc(-c2c(N)ncnc2N[C@@H](C)c2nc3cccc(Cl)c3c(=O)n2C2CC2)no1 [Ex. 33, (S)-2-(1-((6-amino-5-(5-methyl-1,2,4-oxadiazol-3-yl)pyrimidin-4-yl)amino)-ethyl)-5-chloro-3-cyclopropylquinazolin-4(3H)-one]
83	CC(C)c1noc(-c2c(N)ncnc2N[C@@H](C)c2nc3cccc(Cl)c3c(=O)n2C2CC2)n1 [Ex. 57, (S)-2-(1-((6-amino-5-(3-isopropyl-1,2,4-oxadiazol-5-yl)pyrimidin-4-yl)amino)-ethyl)-5-chloro-3-cyclopropylquinazolin-4(3H)-one]
26.2	CC[C@H](Nc1ncnc(N)c1-c1nc(C(N)=O)n(C)n1)c1nc2cccc(Cl)c2c(=O)n1C1CC1 [Ex. 58, (S)-3-(4-amino-6-((1-(5-chloro-3-cyclopropyl-4-oxo-3,4-dihydroquinazolin-2-yl)propyl)amino)pyrimidin-5-yl)-1-methyl-1H-1,2,4-triazole-5-carboxamide]
97.5	CCc1nc(-c2c(N)ncnc2N[C@@H](C)c2nc3cccc(Cl)c3c(=O)n2C2CC2)no1 [Ex. 61, (S)-2-(1-((6-amino-5-(5-ethyl-1,2,4-oxadiazol-3-yl)pyrimidin-4-yl)amino)ethyl)-5-chloro-3-cyclopropylquinazolin-4(3H)-one]
73.7	C[C@H](Nc1ncnc(N)c1-c1ncn(C)n1)c1nc2cccc(Cl)c2c(=O)n1C1CC1 [Ex. 44, (S)-2-(1-((6-amino-5-(1-methyl-1H-1,2,4-triazol-3-yl)pyrimidin-4-yl)amino)-ethyl)-5-chloro-3-cyclopropylquinazolin-4(3H)-one]
14.3	CC[C@H](Nc1ncnc(N)c1-c1nc(C)no1)c1nc2cccc(-c3cnn(C)c3)c2c(=O)n1-c1ccccc1 [Ex. 74, (S)-2-(1-((6-amino-5-(3-methyl-1,2,4-oxadiazol-5-yl)pyrimidin-4-yl)amino)propyl)-5-(1-methyl-1H-pyrazol-4-yl)-3-phenylquinazolin-4(3H)-one]
27.3	CC[C@H](Nc1ncnc(N)c1-c1ccn(C)n1)c1nc2cccc(Cl)c2c(=O)n1C1CC1 [Ex. 51, (S)-2-(1-((6-amino-5-(1-methyl-1H-pyrazol-3-yl)pyrimidin-4-yl)amino)propyl)-5-chloro-3-cyclopropylquinazolin-4(3H)-one]
61.8	CC[C@H](Nc1ncnc(N)c1-c1ncn(C)n1)c1nc2cccc(Cl)c2c(=O)n1-c1ccccc1F (single isomer, unassigned) [Ex. 45]
38.2	CC[C@H](Nc1ncnc(N)c1-c1ncn(C)n1)c1nc2cccc(Cl)c2c(=O)n1C1CC1 [Ex. 53, (S)-2-(1-((6-amino-5-(1-methyl-1H-1,2,4-triazol-3-yl)pyrimidin-4-yl)amino)-propyl)-5-chloro-3-cyclopropylquinazolin-4(3H)-one]
73.7	CC(C)c1nc(-c2c(N)ncnc2N[C@@H](C)c2nc3cccc(Cl)c3c(=O)n2C2CC2)no1 [Ex. 59, (S)-2-(1-((6-amino-5-(5-isopropyl-1,2,4-oxadiazol-3-yl)pyrimidin-4-yl)amino)ethyl)-5-chloro-3-cyclopropylquinazolin-4(3H)-one]
84.3	Cc1noc(-c2c(N)ncnc2N[C@@H](C)c2nc3cccc(Cl)c3c(=O)n2C2CC2)n1 [Ex. 41, (S)-2-(1-((6-amino-5-(3-methyl-1,2,4-oxadiazol-5-yl)pyrimidin-4-yl)amino)-ethyl)-5-chloro-3-cyclopropylquinazolin-4(3H)-one]

Same assay, conditions: rat, plasma, iv, 1 mg/kg

AUC(0-t) [ng·h/mL]	half-life [h]	SMILES
1120	1.56	CC[C@H](Nc1ncnc(N)c1-c1nc(C)no1)c1nc2cccc(-c3cnn(C)c3)c2c(=O)n1-c1ccccc1 [Ex. 74, (S)-2-(1-((6-amino-5-(3-methyl-1,2,4-oxadiazol-5-yl)pyrimidin-4-yl)amino)propyl)-5-(1-methyl-1H-pyrazol-4-yl)-3-phenylquinazolin-4(3H)-one]

Same assay, conditions: rat, plasma, iv, 1 mg/kg; read-out: Vss

Vd [L/kg]	SMILES
1.83	CC[C@H](Nc1ncnc(N)c1-c1nc(C)no1)c1nc2cccc(-c3cnn(C)c3)c2c(=O)n1-c1ccccc1 [Ex. 74, (S)-2-(1-((6-amino-5-(3-methyl-1,2,4-oxadiazol-5-yl)pyrimidin-4-yl)amino)propyl)-5-(1-methyl-1H-pyrazol-4-yl)-3-phenylquinazolin-4(3H)-one]

Same assay, conditions: rat, plasma; Rats; oral (p.o.) generally 5 or 10 mg/kg versus iv dosing

bioavailability [%]	SMILES
105	CC[C@H](Nc1ncnc(N)c1-c1nc(C)no1)c1nc2cccc(-c3cnn(C)c3)c2c(=O)n1-c1ccccc1 [Ex. 74, (S)-2-(1-((6-amino-5-(3-methyl-1,2,4-oxadiazol-5-yl)pyrimidin-4-yl)amino)propyl)-5-(1-methyl-1H-pyrazol-4-yl)-3-phenylquinazolin-4(3H)-one]
